The results in this text go back to the supplement of paper PMC10307832.

What all share (test): relative viability (nuclei count vs DMSO), 5 days (fraction); higher = more cells survive
Compound in the test “IU1-47 + Phenformin”: CC1=CC(=C(N1C2=CC=C(C=C2)Cl)C)C(=O)CN3CCCCC3 [IU1-47] + N=C(N)NC(=N)NCCc1ccccc1 [Phenformin] (partner 250 µM)
An outline of the steps: (§1)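 Lung cancer cell lines in 1536-well plates got either a single drug or a fixed anchor-drug dose together with five library-drug doses (not always all listed) in √10 steps, by pin tool, on the day after seeding. Nuclei were counted after 5 days, and relative viability is the treated-to-vehicle ratio of nuclei counts. Values are medians of duplicate plates.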

Compound in the test “FG-4592 + Trametinib”: Cc1nc(C(=O)NCC(=O)O)c(O)c2ccc(Oc3ccccc3)cc12 [FG-4592] + CC(=O)Nc1cccc(-n2c(=O)n(C3CC3)c(=O)c3c(Nc4ccc(I)cc4F)n(C)c(=O)c(C)c32)c1 [Trametinib] (partner 0.02 µM)
In a few lines:
as §1

Compound in the test “FG-4592 + Pictilisib”: Cc1nc(C(=O)NCC(=O)O)c(O)c2ccc(Oc3ccccc3)cc12 [FG-4592] + CS(=O)(=O)N1CCN(Cc2cc3nc(-c4cccc5[nH]ncc45)nc(N4CCOCC4)c3s2)CC1 [Pictilisib] (partner 1 µM)
An outline of the steps: as §1

Compound in the test “FG-4592 + Vorinostat”: Cc1nc(C(=O)NCC(=O)O)c(O)c2ccc(Oc3ccccc3)cc12 [FG-4592] + O=C(CCCCCCC(=O)Nc1ccccc1)NO [Vorinostat] (partner 1 µM)
An outline of the steps:
as §1

Turning to NCI-H1666, the relative viability is 0.609 with IU1-47 + Phenformin (first compound 0.08 µM); 0.527 in the test with IU1-47 + Phenformin (first compound 0.253 µM); 0.539 with IU1-47 + Phenformin (first compound 0.8 µM); 0.584 with IU1-47 + Phenformin (first compound 2.53 µM); 0.544 in the test with IU1-47 + Phenformin (first compound 8 µM); 0.88 in the test with FG-4592 + Trametinib (first compound 0.08 µM). In addition, the relative viability with FG-4592 + Trametinib (first compound 0.253 µM) worked out at 0.856; with FG-4592 + Trametinib (first compound 0.8 µM), 0.922; in the test with FG-4592 + Trametinib (first compound 2.53 µM), 0.776; with FG-4592 + Trametinib (first compound 8 µM), 0.711; with FG-4592 + Pictilisib (first compound 0.08 µM), 0.41; with FG-4592 + Pictilisib (first compound 0.253 µM) it was 0.341. For the same cell line, the relative viability with FG-4592 + Pictilisib (first compound 0.8 µM) came to 0.42; with FG-4592 + Pictilisib (first compound 2.53 µM), 0.486; in the test with FG-4592 + Pictilisib (first compound 8 µM), 0.321; in the test with FG-4592 + Vorinostat (first compound 0.08 µM) it was 1.02; with FG-4592 + Vorinostat (first compound 0.253 µM), 0.932; in the test with FG-4592 + Vorinostat (first compound 0.8 µM), 0.954. The relative viability stood at 1.08 with FG-4592 + Vorinostat (first compound 2.53 µM) and 1.03 in the test with FG-4592 + Vorinostat (first compound 8 µM).
On to NCI-H1734, for which the relative viability in the test with IU1-47 + Phenformin (first compound 0.08 µM) came to 0.441; with IU1-47 + Phenformin (first compound 0.253 µM), 0.423; with IU1-47 + Phenformin (first compound 0.8 µM) it was 0.369; with IU1-47 + Phenformin (first compound 8 µM), 0.376; with FG-4592 + Trametinib (first compound 0.08 µM), 0.719; in the test with FG-4592 + Trametinib (first compound 0.253 µM) it was 0.631. In addition, the relative viability in the test with FG-4592 + Trametinib (first compound 0.8 µM) worked out at 0.618; with FG-4592 + Trametinib (first compound 2.53 µM), 0.733; with FG-4592 + Trametinib (first compound 8 µM), 0.559; with FG-4592 + Pictilisib (first compound 0.08 µM), 0.417; in the test with FG-4592 + Pictilisib (first compound 0.253 µM), 0.47; with FG-4592 + Pictilisib (first compound 0.8 µM), 0.405. The relative viability worked out at 0.482 with FG-4592 + Pictilisib (first compound 2.53 µM); 0.491 with FG-4592 + Pictilisib (first compound 8 µM); 0.762 with FG-4592 + Vorinostat (first compound 0.08 µM); 0.802 with FG-4592 + Vorinostat (first compound 0.253 µM); 0.616 with FG-4592 + Vorinostat (first compound 0.8 µM); 0.713 with FG-4592 + Vorinostat (first compound 2.53 µM). Besides, the relative viability with FG-4592 + Vorinostat (first compound 8 µM) came out at 0.852.
On to NCI-H1755, for which the relative viability with IU1-47 + Phenformin (first compound 0.08 µM) was 0.684; with IU1-47 + Phenformin (first compound 0.253 µM), 0.665; with IU1-47 + Phenformin (first compound 0.8 µM), 0.698; in the test with IU1-47 + Phenformin (first compound 2.53 µM), 0.613; with IU1-47 + Phenformin (first compound 8 µM), 0.662; in the test with FG-4592 + Trametinib (first compound 0.08 µM), 0.792. Moreover, the relative viability with FG-4592 + Trametinib (first compound 0.253 µM) was determined as 0.74; with FG-4592 + Trametinib (first compound 0.8 µM), 0.729; with FG-4592 + Trametinib (first compound 2.53 µM), 0.827; with FG-4592 + Trametinib (first compound 8 µM), 0.725; in the test with FG-4592 + Pictilisib (first compound 0.08 µM), 0.303; in the test with FG-4592 + Pictilisib (first compound 0.253 µM) it was 0.4. For the same cell line, the relative viability in the test with FG-4592 + Pictilisib (first compound 0.8 µM) worked out at 0.306; with FG-4592 + Pictilisib (first compound 2.53 µM) it was 0.442; with FG-4592 + Pictilisib (first compound 8 µM), 0.444; in the test with FG-4592 + Vorinostat (first compound 0.08 µM), 0.694; with FG-4592 + Vorinostat (first compound 0.253 µM) it was 0.761; in the test with FG-4592 + Vorinostat (first compound 0.8 µM), 0.472. The results for the relative viability in the test with FG-4592 + Vorinostat (first compound 2.53 µM) and in the test with FG-4592 + Vorinostat (first compound 8 µM) were 0.69 and 0.747, respectively.
Take NCI-H1793: the relative viability with IU1-47 + Phenformin (first compound 0.08 µM) is 0.419; in the test with IU1-47 + Phenformin (first compound 0.253 µM) it was 0.259; in the test with IU1-47 + Phenformin (first compound 0.8 µM) it was 0.475; with IU1-47 + Phenformin (first compound 8 µM), 0.352; in the test with FG-4592 + Trametinib (first compound 0.253 µM) it was 0.453; in the test with FG-4592 + Trametinib (first compound 2.53 µM) it was 0.434. Further, the relative viability with FG-4592 + Trametinib (first compound 8 µM) was found to be 0.4; in the test with FG-4592 + Pictilisib (first compound 0.08 µM), 0.281; with FG-4592 + Pictilisib (first compound 0.253 µM) it was 0.384; with FG-4592 + Pictilisib (first compound 2.53 µM) it was 0.228; in the test with FG-4592 + Pictilisib (first compound 8 µM), 0.354; in the test with FG-4592 + Vorinostat (first compound 0.253 µM), 0.677. For the same cell line, the relative viability in the test with FG-4592 + Vorinostat (first compound 2.53 µM) came out at 0.638; with FG-4592 + Vorinostat (first compound 8 µM), 0.678.
On to NCI-H1915, for which the relative viability was determined as 0.373 in the test with IU1-47 + Phenformin (first compound 0.08 µM); 0.354 with IU1-47 + Phenformin (first compound 0.253 µM); 0.342 in the test with IU1-47 + Phenformin (first compound 0.8 µM); 0.332 with IU1-47 + Phenformin (first compound 8 µM); 0.304 with FG-4592 + Trametinib (first compound 0.08 µM); 0.266 with FG-4592 + Trametinib (first compound 0.253 µM). Also, the relative viability with FG-4592 + Trametinib (first compound 0.8 µM) was found to be 0.274; in the test with FG-4592 + Trametinib (first compound 2.53 µM), 0.287; with FG-4592 + Trametinib (first compound 8 µM), 0.258; with FG-4592 + Pictilisib (first compound 0.08 µM), 0.913; with FG-4592 + Pictilisib (first compound 0.253 µM) it was 0.915; with FG-4592 + Pictilisib (first compound 0.8 µM), 0.873. The relative viability with FG-4592 + Pictilisib (first compound 2.53 µM) amounted to 0.93; with FG-4592 + Pictilisib (first compound 8 µM), 0.95; with FG-4592 + Vorinostat (first compound 0.08 µM), 0.452; in the test with FG-4592 + Vorinostat (first compound 0.253 µM), 0.489; with FG-4592 + Vorinostat (first compound 0.8 µM), 0.469; with FG-4592 + Vorinostat (first compound 2.53 µM) it was 0.442. Besides, the relative viability with FG-4592 + Vorinostat (first compound 8 µM) amounted to 0.468.
With NCI-H1944, the relative viability with IU1-47 + Phenformin (first compound 0.08 µM) stood at 0.2; with IU1-47 + Phenformin (first compound 0.253 µM), 0.192; with IU1-47 + Phenformin (first compound 0.8 µM), 0.199; with IU1-47 + Phenformin (first compound 2.53 µM), 0.216; in the test with IU1-47 + Phenformin (first compound 8 µM), 0.168; in the test with FG-4592 + Trametinib (first compound 0.08 µM), 0.426. In addition, the relative viability with FG-4592 + Trametinib (first compound 0.253 µM) stood at 0.409; with FG-4592 + Trametinib (first compound 0.8 µM), 0.464; with FG-4592 + Trametinib (first compound 2.53 µM) it was 0.422; in the test with FG-4592 + Trametinib (first compound 8 µM) it was 0.371; in the test with FG-4592 + Pictilisib (first compound 0.08 µM) it was 0.3; in the test with FG-4592 + Pictilisib (first compound 0.253 µM), 0.336. Besides, the relative viability in the test with FG-4592 + Pictilisib (first compound 0.8 µM) was determined as 0.294; with FG-4592 + Pictilisib (first compound 2.53 µM), 0.356; with FG-4592 + Pictilisib (first compound 8 µM), 0.363; with FG-4592 + Vorinostat (first compound 0.08 µM), 0.479; with FG-4592 + Vorinostat (first compound 0.253 µM), 0.571; in the test with FG-4592 + Vorinostat (first compound 0.8 µM), 0.461. For the same cell line, the relative viability with FG-4592 + Vorinostat (first compound 2.53 µM) was 0.512; in the test with FG-4592 + Vorinostat (first compound 8 µM), 0.561.
On to NCI-H1975, for which the relative viability with IU1-47 + Phenformin (first compound 0.08 µM) stood at 0.411; with IU1-47 + Phenformin (first compound 0.253 µM), 0.411; with IU1-47 + Phenformin (first compound 0.8 µM), 0.409; in the test with IU1-47 + Phenformin (first compound 2.53 µM), 0.419; in the test with IU1-47 + Phenformin (first compound 8 µM) it was 0.384; with FG-4592 + Trametinib (first compound 0.08 µM), 0.33. In addition, the relative viability in the test with FG-4592 + Trametinib (first compound 0.253 µM) worked out at 0.292; with FG-4592 + Trametinib (first compound 0.8 µM), 0.337; with FG-4592 + Trametinib (first compound 2.53 µM), 0.24; with FG-4592 + Trametinib (first compound 8 µM) it was 0.184; with FG-4592 + Pictilisib (first compound 0.08 µM) it was 0.284; with FG-4592 + Pictilisib (first compound 0.253 µM), 0.266. Also, the relative viability was 0.259 in the test with FG-4592 + Pictilisib (first compound 0.8 µM); 0.253 in the test with FG-4592 + Pictilisib (first compound 2.53 µM); 0.244 with FG-4592 + Pictilisib (first compound 8 µM); 0.723 with FG-4592 + Vorinostat (first compound 0.08 µM); 0.644 with FG-4592 + Vorinostat (first compound 0.253 µM); 0.748 in the test with FG-4592 + Vorinostat (first compound 0.8 µM). Further, the relative viability was found to be 0.767 with FG-4592 + Vorinostat (first compound 2.53 µM) and 0.653 with FG-4592 + Vorinostat (first compound 8 µM).
